From PubChem BioAssay AID2060609 (Molecular Pharmacology Branch, DTP, NCI, 2025)

Tested on: 855422-203-R-J1-PDC complex spheroids, viability
Test: Anticancer human tumor 855422-203-R-J1-PDC patient-derived bladder carcinoma cell line growth inhibition [CLK]
Conditions: for IC50: curve of first compound; for viability, T/C: stronger effect = lower value
Outline: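 Patient-derived tumor cells grown as complex spheroids with HUVEC endothelial cells and mesenchymal stem cells, treated with drug combinations. Concentrations descend in half-log steps from near clinical Cmax, or from 10 microM if Cmax unknown.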

[1] = second compound 0.0316 µM, first compound 0.0316 µM
[2] = second compound 0.0316 µM, first compound 0.1 µM
[3] = second compound 0.0316 µM, first compound 0.316 µM
[4] = second compound 0.0316 µM, first compound 1 µM
[5] = second compound 0.0316 µM, first compound 3.16 µM
[6] = second compound 0.0316 µM, first compound 10 µM
[7] = second compound 0.1 µM, first compound 0.0316 µM
[8] = second compound 0.1 µM, first compound 0.1 µM
[9] = second compound 0.1 µM, first compound 0.316 µM
[10] = second compound 0.1 µM, first compound 1 µM
[11] = second compound 0.1 µM, first compound 3.16 µM
[12] = second compound 0.1 µM, first compound 10 µM
[13] = second compound 0.316 µM, first compound 0.0316 µM
[14] = second compound 0.316 µM, first compound 0.1 µM
[15] = second compound 0.316 µM, first compound 0.316 µM
[16] = second compound 0.316 µM, first compound 1 µM
[17] = second compound 0.316 µM, first compound 3.16 µM
[18] = second compound 0.316 µM, first compound 10 µM
[19] = second compound 1 µM, first compound 0.0316 µM
[20] = second compound 1 µM, first compound 0.1 µM
[21] = second compound 1 µM, first compound 0.316 µM
[22] = second compound 1 µM, first compound 1 µM
[23] = second compound 1 µM, first compound 3.16 µM
[24] = second compound 1 µM, first compound 10 µM
[25] = second compound 3.16 µM, first compound 0.0316 µM
[26] = second compound 3.16 µM, first compound 0.1 µM
[27] = second compound 3.16 µM, first compound 0.316 µM
[28] = second compound 3.16 µM, first compound 1 µM
[29] = second compound 3.16 µM, first compound 3.16 µM
[30] = second compound 3.16 µM, first compound 10 µM
[31] = second compound 10 µM, first compound 0.0316 µM
[32] = second compound 10 µM, first compound 0.1 µM
[33] = second compound 10 µM, first compound 0.316 µM
[34] = second compound 10 µM, first compound 1 µM
[35] = second compound 10 µM, first compound 3.16 µM
[36] = second compound 10 µM, first compound 10 µM
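Further: spheroids exposed to drugs for seven days before readout.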
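Wherever viability, T/C is given: 100% = DMSO vehicle control wells.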

For `COc1ccc([C@@H](O)c2cc(-c3ncnc4cc(N5CCOCC5)ccc34)c(F)cc2Cl)nn1` + CNC(=O)c1ccc(Nc2nc(OC3CCCC3)c3c(-c4ccc5nc(C)oc5c4)c[nH]c3n2)c(OC)c1, the IC50 (second compound 0.0316 µM) was 5740 nM, the IC50 (second compound 0.1 µM) was 1460 nM and the IC50 (second compound 0.316 µM) was under 31.6 nM. It also gave an IC50 (second compound 1 µM) of under 31.6 nM, an IC50 (second compound 3.16 µM) of under 31.6 nM and an IC50 (second compound 10 µM) of under 31.6 nM. For the same molecule, the viability, T/C [1] was 78.5%, the viability, T/C [2] was 118% and the viability, T/C [3] was 95.2%. For the same molecule, the viability, T/C [4] was 82.7%, the viability, T/C [5] was 71.8% and the viability, T/C [6] was 31.1%. The viability, T/C [7] was 55.8%, the viability, T/C [8] was 55.2% and the viability, T/C [9] was 44.4%. The viability, T/C [10] was 47.9%, the viability, T/C [11] was 48.9% and the viability, T/C [12] was 22.9%. For the same molecule, the viability, T/C [13] was 24%, the viability, T/C [14] was 23.9% and the viability, T/C [15] was 16.8%. For the same molecule, the viability, T/C [16] was 19.2%, the viability, T/C [17] was 16.3% and the viability, T/C [18] was 12.3%. For the same molecule, the viability, T/C [19] was 23.3%, the viability, T/C [20] was 24.6% and the viability, T/C [21] was 18.3%. The viability, T/C [22] was 17.4%, the viability, T/C [23] was 19.5% and the viability, T/C [24] was 12.1%. It also gave a viability, T/C [25] of 17.7%, a viability, T/C [26] of 17.7% and a viability, T/C [27] of 16.3%. The viability, T/C [28] was 22.1%, the viability, T/C [29] was 16.6% and the viability, T/C [30] was 12.4%. For the same molecule, the viability, T/C [31] was 22.1%, the viability, T/C [32] was 20.9% and the viability, T/C [33] was 25.1%. The viability, T/C [34] was 18.4%, the viability, T/C [35] was 14.4% and the viability, T/C [36] was 8.91%.
`COc1cccc2c1C(=O)c1c(O)c3c(c(O)c1C2=O)CC(O)(C(=O)CO)CC3OC1CC(N)C(O)C(C)O1` (stereo unspecified) + CNC(=O)c1ccc(Nc2nc(OC3CCCC3)c3c(-c4ccc5nc(C)oc5c4)c[nH]c3n2)c(OC)c1 was tested, and the IC50 (second compound 0.0316 µM) was under 31.6 nM, the IC50 (second compound 0.1 µM) was under 31.6 nM and the IC50 (second compound 0.316 µM) was under 31.6 nM. It also gave an IC50 (second compound 1 µM) of under 31.6 nM, an IC50 (second compound 3.16 µM) of under 31.6 nM and an IC50 (second compound 10 µM) of under 31.6 nM. The viability, T/C [1] was 10.3%, the viability, T/C [2] was 2.45% and the viability, T/C [3] was 0.72%. The viability, T/C [4] was 0.22%, the viability, T/C [5] was 0.45% and the viability, T/C [6] was 0.6%. The viability, T/C [7] was 11%, the viability, T/C [8] was 1.62% and the viability, T/C [9] was 1.02%. It also gave a viability, T/C [10] of 0.3%, a viability, T/C [11] of 0.4% and a viability, T/C [12] of 0.51%. It also gave a viability, T/C [13] of 9.64%, a viability, T/C [14] of 1.3% and a viability, T/C [15] of 0.46%. The viability, T/C [16] was 0.22%, the viability, T/C [17] was 0.45% and the viability, T/C [18] was 0.55%. For the same molecule, the viability, T/C [19] was 7.4%, the viability, T/C [20] was 1.13% and the viability, T/C [21] was 0.24%. It also gave a viability, T/C [22] of 0.56%, a viability, T/C [23] of 0.58% and a viability, T/C [24] of 0.82%. It also gave a viability, T/C [25] of 9.03%, a viability, T/C [26] of 0.94% and a viability, T/C [27] of 0.2%. The viability, T/C [28] was 0.62%, the viability, T/C [29] was 0.98% and the viability, T/C [30] was 0.75%. It also gave a viability, T/C [31] of 6.1%, a viability, T/C [32] of 0.68% and a viability, T/C [33] of 0.35%. For the same molecule, the viability, T/C [34] was 0.72%, the viability, T/C [35] was 0.63% and the viability, T/C [36] was 1.3%.
`O=c1[nH]cc(F)c(=O)[nH]1` + CNC(=O)c1ccc(Nc2nc(OC3CCCC3)c3c(-c4ccc5nc(C)oc5c4)c[nH]c3n2)c(OC)c1 showed an IC50 (second compound 0.0316 µM) of 9090 nM, an IC50 (second compound 0.1 µM) of 527 nM and an IC50 (second compound 0.316 µM) of under 31.6 nM. It also gave an IC50 (second compound 1 µM) of under 31.6 nM, an IC50 (second compound 3.16 µM) of under 31.6 nM and an IC50 (second compound 10 µM) of under 31.6 nM. The viability, T/C [1] was 135%, the viability, T/C [2] was 119% and the viability, T/C [3] was 98.4%. It also gave a viability, T/C [4] of 72.3%, a viability, T/C [5] of 67.5% and a viability, T/C [6] of 47.9%. For the same molecule, the viability, T/C [7] was 65.5%, the viability, T/C [8] was 65.7% and the viability, T/C [9] was 56.4%. The viability, T/C [10] was 40.3%, the viability, T/C [11] was 40.8% and the viability, T/C [12] was 44.9%. For the same molecule, the viability, T/C [13] was 26.4%, the viability, T/C [14] was 22.8% and the viability, T/C [15] was 22.1%. The viability, T/C [16] was 18.4%, the viability, T/C [17] was 19.7% and the viability, T/C [18] was 18.9%. For the same molecule, the viability, T/C [19] was 23.3%, the viability, T/C [20] was 23.9% and the viability, T/C [21] was 27.6%. For the same molecule, the viability, T/C [22] was 17.3%, the viability, T/C [23] was 14.5% and the viability, T/C [24] was 17.9%. It also gave a viability, T/C [25] of 25.1%, a viability, T/C [26] of 23.8% and a viability, T/C [27] of 22.1%. For the same molecule, the viability, T/C [28] was 16.3%, the viability, T/C [29] was 12.7% and the viability, T/C [30] was 14.7%. For the same molecule, the viability, T/C [31] was 21.5%, the viability, T/C [32] was 23.3% and the viability, T/C [33] was 20.2%. The viability, T/C [34] was 17.9%, the viability, T/C [35] was 14.7% and the viability, T/C [36] was 13.6%.
